ChEMBL document CHEMBL1221257, “Hit-to-lead optimization of a series of carboxamides of ethyl 2-amino-4-phenylthiazole-5-carboxylates as novel adenosine A2A receptor antagonists” (Bioorg Med Chem Lett, 2010)

How the values were obtained:
Adenosine receptor A2a [1] = target: T1, Adenosine receptor A2a (Homo sapiens, UniProt P29274)
Description: Displacement of [3H]ZM241385 from human adenosine A2A receptor expressed in buculovirus system by liquid scintillation counting

Adenosine receptor A1 = target: T2, Adenosine receptor A1 (Homo sapiens, UniProt P30542); assay: Displacement of [3H]DPCPX from human adenosine A1 receptor expressed in CHO cells by liquid scintillation counting; type: cell-based
T2 sequence (P30542 whole entry): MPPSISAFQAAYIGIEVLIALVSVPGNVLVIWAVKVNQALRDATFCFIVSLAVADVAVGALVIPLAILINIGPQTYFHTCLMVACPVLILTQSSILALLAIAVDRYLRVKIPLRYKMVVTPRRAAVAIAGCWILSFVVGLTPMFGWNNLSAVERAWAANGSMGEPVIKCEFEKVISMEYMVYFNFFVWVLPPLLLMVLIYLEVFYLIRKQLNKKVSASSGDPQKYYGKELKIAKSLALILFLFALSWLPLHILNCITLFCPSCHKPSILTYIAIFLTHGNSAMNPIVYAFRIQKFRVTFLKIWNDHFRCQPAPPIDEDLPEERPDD

Adenosine receptor A2a [2] = target: T1, Adenosine receptor A2a; assay: Displacement of [3H]ZM241385 from human adenosine A2A receptor expressed in buculovirus system at 10 uM by liquid scintillation counting
Mus musculus [3] = assay: Reversal of haloperidol-induced hypolocomotion in po dosed NMRI mouse model of Parkinson's disease measured for 20 mins; type: functional
[4] = target: T3, Adenosine receptor A1 (Homo sapiens) (UniProt P30542); assay: Displacement of [3H]DPCPX from human adenosine A1 receptor expressed in CHO cells at 2000 nM by liquid scintillation counting; type: cell-based
T3 sequence (whole entry): T2 sequence (P30542 whole entry)

[5] = target: T3, Adenosine receptor A1 (Homo sapiens); assay: Displacement of [3H]DPCPX from human adenosine A1 receptor expressed in CHO cells at 10 uM by liquid scintillation counting; type: cell-based
Mus musculus [6] = assay: In-vivo displacement of [3H]SCH442416 from adenosine A2A receptor in po dosed NMRI mouse by liquid scintillation counting; type: functional

T1 sequence (P29274 whole entry): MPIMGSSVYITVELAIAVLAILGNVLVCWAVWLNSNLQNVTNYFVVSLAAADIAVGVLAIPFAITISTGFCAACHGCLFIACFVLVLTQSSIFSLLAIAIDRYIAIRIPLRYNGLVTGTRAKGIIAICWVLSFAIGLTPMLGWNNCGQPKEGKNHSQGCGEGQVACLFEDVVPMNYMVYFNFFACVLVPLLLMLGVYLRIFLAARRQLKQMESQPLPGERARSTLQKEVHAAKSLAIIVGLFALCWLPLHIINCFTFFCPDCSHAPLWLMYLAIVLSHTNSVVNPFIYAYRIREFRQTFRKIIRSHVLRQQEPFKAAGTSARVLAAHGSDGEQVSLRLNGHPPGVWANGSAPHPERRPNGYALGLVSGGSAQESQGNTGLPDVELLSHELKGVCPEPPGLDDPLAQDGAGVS

Cc1noc(-c2sc(NC(=O)CC(C)C)nc2-c2ccccc2)n1 was tested, and the Ki (Adenosine receptor A2a [1]) was 48 nM and the Ki (Adenosine receptor A1) was 27 nM.

With CCOC(=O)c1sc(NC(=O)c2ccco2)nc1-c1ccccc1 the Ki (Adenosine receptor A2a [1]) was 13 nM and the Ki (Adenosine receptor A1) was 95 nM.

Cc1nc(-c2sc(NC(=O)CC(C)C)nc2-c2ccccc2)no1 showed a Ki (Adenosine receptor A2a [1]) of 33 nM and a Ki (Adenosine receptor A1) of 82 nM.

Work on O=C(Nc1nc(-c2ccccc2)c(C(=O)O)s1)c1ccco1 yielded an Activity (Adenosine receptor A2a [2]) of 0%.

With O=C(Nc1nc(-c2ccccc2)c(-c2ncon2)s1)c1ccccc1 the Ki (Adenosine receptor A2a [1]) was 330 nM and the Ki (Adenosine receptor A1) was 300 nM.

In the case of CCn1c(=O)c2c(nc(/C=C/c3ccc(OC)c(OC)c3)n2C)n(CC)c1=O [ISTRADEFYLLINE], the Ki (Adenosine receptor A1) is reported as 3000 nM and the ED50 (Mus musculus [3]) is reported as 0.13 mg/kg.

CCn1nnc(-c2sc(NC(=O)c3ccco3)nc2-c2ccccc2)n1 was tested, and the Ki (Adenosine receptor A2a [1]) was 94 nM and the Ki (Adenosine receptor A1) was 650 nM.

CC(=O)Nc1nc(-c2ccccc2)c(-c2nc(C)no2)s1 was tested, and the Ki (Adenosine receptor A2a [1]) was 110 nM and the Ki (Adenosine receptor A1) was 370 nM.

With CC(C)CC(=O)Nc1nc(-c2ccccc2)c(-c2ncon2)s1 the Ki (Adenosine receptor A2a [1]) was 340 nM and the Ki (Adenosine receptor A1) was 77 nM.

For CCNC(=O)c1sc(NC(=O)c2ccco2)nc1-c1ccccc1, the Activity (Adenosine receptor A2a [2]) was 37%.

In the case of Cc1noc(-c2sc(NC(=O)C3CC3)nc2-c2ccccc2)n1, the Ki (Adenosine receptor A2a [1]) is reported as 12 nM and the Ki (Adenosine receptor A1) is reported as 41 nM.

For Cc1noc(-c2sc(NC(=O)c3ccccc3)nc2-c2ccccc2)n1, the Ki (Adenosine receptor A2a [1]) was 190 nM and the Ki (Adenosine receptor A1) was 180 nM.

In the case of COCCOc1ccc(N2CCN(CCn3ncc4c3nc(N)n3nc(-c5ccco5)nc43)CC2)cc1 [PRELADENANT], the Activity [4] is reported as 30%, the Ki (Adenosine receptor A2a [1]) is reported as 5 nM and the Ki (Adenosine receptor A1) is reported as greater than 1000 nM. It also gave an ED50 (Mus musculus [3]) of 0.4 mg/kg.

For O=C(Nc1nc(-c2ccccc2)c(-c2ncon2)s1)c1ccco1, the Ki (Adenosine receptor A2a [1]) was 410 nM and the Ki (Adenosine receptor A1) was 230 nM.

Cc1nc(-c2sc(NC(=O)c3ccccc3)nc2-c2ccccc2)no1 gave a Ki (Adenosine receptor A2a [1]) of 83 nM and an Activity [5] of 45%.

For N#Cc1sc(NC(=O)c2ccco2)nc1-c1ccccc1, the Ki (Adenosine receptor A2a [1]) was 290 nM.

For Cc1nc(-c2sc(NC(=O)c3ccco3)nc2-c2ccccc2)no1, the Ki (Adenosine receptor A2a [1]) was 700 nM and the Ki (Adenosine receptor A1) was 780 nM.

Compound O=C(Cc1ccccc1)Nc1nc(-c2ccccc2)c(-c2ncon2)s1 has a Ki (Adenosine receptor A2a [1]) of 710 nM and a Ki (Adenosine receptor A1) of 1700 nM.

Work on CCn1nnc(-c2sc(NC(=O)Cc3ccc(OC)c(OC)c3)nc2-c2ccccc2)n1 yielded a Ki (Adenosine receptor A2a [1]) of 45 nM and a Ki (Adenosine receptor A1) of 1600 nM.

With CCOCc1sc(NC(=O)c2ccco2)nc1-c1ccccc1 the Ki (Adenosine receptor A2a [1]) was 190 nM and the Ki (Adenosine receptor A1) was 92 nM.

Compound CC(=O)Nc1nc(-c2ccccc2)c(-c2noc(C)n2)s1 has a Ki (Adenosine receptor A2a [1]) of 190 nM and an Activity [5] of 76%.

CCS(=O)(=O)c1sc(NC(=O)c2ccco2)nc1-c1ccccc1 was tested, and the Activity (Adenosine receptor A2a [2]) was 25%.

Cc1nc(-c2sc(NC(=O)C3CC3)nc2-c2ccccc2)no1 gave a Ki (Adenosine receptor A2a [1]) of 28 nM, an ED50 (Mus musculus [6]) of 5.8 mg/kg and a Ki (Adenosine receptor A1) of 150 nM. The Activity (Mus musculus [3]) was “Dose-dependent effect” and the ED50 (Mus musculus [3]) was 7 mg/kg.

Work on CCCC(=O)c1sc(NC(=O)c2ccco2)nc1-c1ccccc1 yielded a Ki (Adenosine receptor A2a [1]) of 62 nM and a Ki (Adenosine receptor A1) of 90 nM.

For Cc1noc(-c2sc(NC(=O)Cc3ccccc3)nc2-c2ccccc2)n1, the Ki (Adenosine receptor A2a [1]) was 57 nM and the Ki (Adenosine receptor A1) was 340 nM.

Compound Cc1noc(-c2sc(NC(=O)c3ccco3)nc2-c2ccccc2)n1 has a Ki (Adenosine receptor A2a [1]) of 200 nM and a Ki (Adenosine receptor A1) of 270 nM.

O=C(Nc1nc(-c2ccccc2)c(-c2ncon2)s1)C1CC1 showed a Ki (Adenosine receptor A2a [1]) of 120 nM and a Ki (Adenosine receptor A1) of 310 nM.

Compound Cc1nc(-c2sc(NC(=O)Cc3ccccc3)nc2-c2ccccc2)no1 has a Ki (Adenosine receptor A2a [1]) of 25 nM and a Ki (Adenosine receptor A1) of 260 nM.

CCn1nnc(-c2sc(NC(=O)Cc3ccccc3)nc2-c2ccccc2)n1 was tested, and the Ki (Adenosine receptor A2a [1]) was 460 nM and the Ki (Adenosine receptor A1) was 1200 nM.

CCn1nnc(-c2sc(NC(=O)c3ccccc3)nc2-c2ccccc2)n1 gave a Ki (Adenosine receptor A2a [1]) of 220 nM and an Activity [5] of 65%.

Compound CCn1nnc(-c2sc(NC(=O)C3CC3)nc2-c2ccccc2)n1 has a Ki (Adenosine receptor A2a [1]) of 77 nM and a Ki (Adenosine receptor A1) of 210 nM.
